According to US9862712B2, “Benzimidazole based EGFR inhibitors” (COUNCIL OF SCIENTIFIC & INDUSTRIAL RESEARCH, priority 2014, dated 2018):
“Also recorded” adds a separate entry of the source.

How the values were obtained:
[1] = system: U87MG Cell line (Glioblastoma cell line); experiment: MTT cell proliferation assay, U87MG Cell line; assay type: cell-based; conditions: for viability at 0.01 µM / viability at 0.1 µM / viability at 2.5 µM / viability at 5 µM / viability at 10 µM: Homo sapiens, U-87 MG, U87MG, 72 h, MTT; for anticancer activity against U87-MG Cell line (in words): compared among 15 molecules
Method: (§1) 1. Protocol Followed for Anti Cancer Activity and Results, Cell Proliferation Assays: Cell lines used herein were purchased from NCCS (National Center for Cell Sciences) Pune, India. Invitro Activity was performed in NCL (National Chemical Laboratory) Pune. Each cell line was plated in 96-well microtiter plates (10,000 cells per well), and serial dilutions of indicated compounds were added. At the end of the incubation period (72 h at 37° C.), cell viability was determined by a tetrazolium dye, MTT (3-(4,5-dimethylthiazol-2-yl)-2,5-diphenyl tetrazolium bromide) (Promega, USA). The formazan crystals were dissolved in DMSO, and the absorbance at 600 nm was recorded using an ELISA plate reader. IC50 values were calculated using nonlinear regression and defined as the concentration needed for a 50% reduction in absorbance of treated versus untreated control cells.
By using the above procedure, the compounds of the invention were tested on U87MG Cell line (glioblastoma cell line) and the results obtained are presented below in table 8, Refer FIG. 5.

[2] = system: A549 Cell line (Lung Cancer Cell line); experiment: MTT cell proliferation assay, A549 Cell line; assay type: cell-based, human; conditions: for viability at 0.01 µM / viability at 0.1 µM / viability at 2.5 µM / viability at 5 µM / viability at 10 µM: Homo sapiens, 72 h, MTT; for viability at 0.01 µM: A549, 0.01 μM; for viability at 0.1 µM: A549, 0.1 μM; for viability at 2.5 µM: A549, 2.5 μM; for viability at 5 µM: A549, 5 μM; for viability at 10 µM: A549, 10 μM; for anticancer activity against A549 Cell line (in words): compared among 15 molecules and with Gefitinib
Method: as §1
By using the above procedure, the compounds of the invention were tested on A549 Cell line and the results obtained are presented below in table 4, Refer FIG. 1.

[3] = system: HOP-62 Cell line; experiment: MTT cell proliferation assay, HOP-62 Cell line; assay type: cell-based; conditions: for viability at 0.01 µM / viability at 0.1 µM / viability at 2.5 µM / viability at 5 µM / viability at 10 µM: Homo sapiens, 72 h, MTT; for viability at 0.01 µM: HOP-62, 0.01 μM; for viability at 0.1 µM: HOP-62, 0.1 μM; for viability at 2.5 µM: HOP-62, 2.5 μM; for viability at 5 µM: HOP-62, 5 μM; for viability at 10 µM: HOP-62, 10 μM; for anticancer activity against HOP-62 Cell line (in words): compared among 15 molecules and with Gefitinib
Method: as §1
By using the above procedure, the compounds of the invention were tested on HOP-62 Cell line and the results obtained are presented below in table 6, Refer FIG. 3.

[4] = Log P (Table 3); assay type: physicochemical; conditions: no method given
[5] = system: MDA-MB-436 Cell line; experiment: MTT cell proliferation assay, MDA-MB-436 Cell line; assay type: cell-based; conditions: for viability at 0.01 µM / viability at 0.1 µM / viability at 2.5 µM / viability at 5 µM / viability at 10 µM: Homo sapiens, 72 h, MTT; for viability at 0.01 µM: MDA-MB-436, 0.01 μM; for viability at 0.1 µM: MDA-MB-436, 0.1 μM; for viability at 2.5 µM: MDA-MB-436, 2.5 μM; for viability at 5 µM: MDA-MB-436, 5 μM; for viability at 10 µM: MDA-MB-436, 10 μM; for anticancer activity against MDA-MB-436 Cell line (in words): compared among 15 molecules and with Gefitinib
Method: as §1
By using the above procedure, the compounds of the invention were tested on MDA-MB-436 Cell line and the results obtained are presented below in table 7, Refer FIG. 4.

[6] = system: MCF-7 Cell line; experiment: MTT cell proliferation assay, MCF-7 Cell line; assay type: cell-based; conditions: for viability at 0.01 µM / viability at 0.1 µM / viability at 2.5 µM / viability at 5 µM / viability at 10 µM: Homo sapiens, MCF7, 72 h, MTT; for viability at 0.01 µM: MCF-7, 0.01 μM; for viability at 0.1 µM: MCF-7, 0.1 μM; for viability at 2.5 µM: MCF-7, 2.5 μM; for viability at 5 µM: MCF-7, 5 μM; for viability at 10 µM: MCF-7, 10 μM; for anticancer activity against MCF-7 Cell line (in words): compared among 15 molecules
Method: as §1
Table 4 indicates anticancer activity against A549 Cell line. The Gefitinib was used as standard and % cell Viable was measured compared to control. The procedure used was MTT assay as mentioned. […] By using the above procedure, the compounds of the invention were tested on MCF-7 Cell line and the results obtained are presented below in table 5, Refer FIG. 2.

| Structure (SMILES) | viability at 0.01 µM [1] | viability at 0.1 µM [1] | viability at 2.5 µM [1] | viability at 5 µM [1] | viability at 10 µM [1] | viability at 0.01 µM [2] | viability at 0.1 µM [2] | viability at 2.5 µM [2] | viability at 5 µM [2] | viability at 10 µM [2] | viability at 0.01 µM [3] | viability at 0.1 µM [3] | viability at 2.5 µM [3] | viability at 5 µM [3] | viability at 10 µM [3] | viability at 0.01 µM [5] | viability at 0.1 µM [5] | viability at 2.5 µM [5] | viability at 5 µM [5] | viability at 10 µM [5] | further results |
| --- | --- | --- | --- | --- | --- | --- | --- | --- | --- | --- | --- | --- | --- | --- | --- | --- | --- | --- | --- | --- | --- |
| Nc1nc(Nc2ccccc2)sc1-c1nc2ccccc2[nH]1 [Molecule S4-M1, 5-(1H-benzo[d]imidazol-2-yl)-N^2-phenylthiazole-2,4-diamine] | 40.8% | 32.4% | 23.1% | 14.6% | 8.94% | 49.1% | 39.1% | 29.1% | 15.1% | 10.9% | 54.1% | 42.1% | 34.1% | 22.1% | 12.9% | 82.8% | 70.4% | 67.1% | 54.6% | 40.9% | anticancer activity against U87-MG Cell line (in words) [1]: most active; melting point: 268 to 270 °C; anticancer activity against A549 Cell line (in words) [2]: most active; anticancer activity against HOP-62 Cell line (in words) ([3]; listed as M1): most active; also recorded: Invitro activity comparable to standard Gefitinib; logP [4]: 3.02; anticancer activity against MDA-MB-436 Cell line (in words) ([5]; listed as M1): most active; also recorded: Invitro activity comparable to standard Gefitinib; viability at 0.01 µM [6]: 69.8%; viability at 0.1 µM [6]: 60.4%; viability at 2.5 µM [6]: 49.1%; viability at 5 µM [6]: 42.6%; viability at 10 µM [6]: 30.9%; anticancer activity against MCF-7 Cell line (in words) ([6]; listed as M1): most active; also recorded: showing Invitro activity |
| COc1ccc(Nc2nc(N)c(-c3nc4ccccc4[nH]3)s2)cc1 [Molecule S4-M2, 5-(1H-benzo[d]imidazol-2-yl)-N^2-(4-methoxyphenyl)thiazole-2,4-diamine] | 93% | 86.5% | 79.5% | 68.5% | 55.5% | 95% | 89.5% | 75.5% | 60.5% | 51.5% | 99% | 93.5% | 85.5% | 77.5% | 75.5% | 113% | 108% | 95.5% | 93.5% | 90.5% | melting point: 224 to 226 °C; logP [4]: 2.11; viability at 0.01 µM [6]: 97%; viability at 0.1 µM [6]: 95.5%; viability at 2.5 µM [6]: 95.5%; viability at 5 µM [6]: 90.5%; viability at 10 µM [6]: 84.5% |
| Nc1nc(Nc2ccc([N+](=O)[O-])cc2)sc1-c1nc2ccccc2[nH]1 [Molecule S4-M3, 5-(1H-benzo[d]imidazol-2-yl)-N^2-(4-nitrophenyl)thiazole-2,4-diamine] | 96.6% | 82.4% | 69.8% | 55.8% | 30.8% | 97.6% | 90.4% | 81.8% | 71.8% | 62.8% | 99.6% | 94.4% | 90.8% | 90.8% | 88.8% | 99.6% | 94.4% | 90.8% | 79.8% | 66.8% | melting point: 260 to 262 °C; logP [4]: 3.32; viability at 0.01 µM [6]: 99.6%; viability at 0.1 µM [6]: 92.4%; viability at 2.5 µM [6]: 90.8%; viability at 5 µM [6]: 84.8%; viability at 10 µM [6]: 72.8% |
| Nc1nc(Nc2ccccc2[N+](=O)[O-])sc1-c1nc2ccccc2[nH]1 [Molecule S4-M4, 5-(1H-benzo[d]imidazol-2-yl)-N^2-(2-nitrophenyl)thiazole-2,4-diamine] | 45.7% | 33.2% | 22.8% | 18.9% | 8.86% | 57.1% | 49.1% | 34.7% | 25.9% | 18.4% | 43.1% | 36.1% | 25.7% | 18.9% | 12.4% | 69.7% | 58.2% | 42.8% | 28.9% | 21.9% | anticancer activity against U87-MG Cell line (in words) [1]: most active; melting point: 220 to 222 °C; anticancer activity against A549 Cell line (in words) [2]: most active; anticancer activity against HOP-62 Cell line (in words) ([3]; listed as M4): most active; also recorded: Invitro activity comparable to standard Gefitinib; logP [4]: 3.33; anticancer activity against MDA-MB-436 Cell line (in words) ([5]; listed as M4): most active; also recorded: Invitro activity comparable to standard Gefitinib; viability at 0.01 µM [6]: 72.7%; viability at 0.1 µM [6]: 61.2%; viability at 2.5 µM [6]: 53.8%; viability at 5 µM [6]: 42.9%; viability at 10 µM [6]: 31.9%; anticancer activity against MCF-7 Cell line (in words) ([6]; listed as M4): most active; also recorded: showing Invitro activity |
| Nc1nc(Nc2ccc(Cl)cc2)sc1-c1nc2ccccc2[nH]1 [Molecule S4-M5, 5-(1H-benzo[d]imidazol-2-yl)-N^2-(4-chlorophenyl)thiazole-2,4-diamine] | 92.8% | 80.6% | 72.9% | 60.9% | 49.9% | 95.8% | 85.6% | 73.9% | 65.9% | 54.9% | 101% | 92.6% | 88.9% | 82.9% | 75.9% | 99.8% | 99.6% | 99.9% | 99.9% | 98.9% | melting point: 210 to 212 °C; logP [4]: 3.99; viability at 0.01 µM [6]: 89.8%; viability at 0.1 µM [6]: 83.6%; viability at 2.5 µM [6]: 79.9%; viability at 5 µM [6]: 72.9%; viability at 10 µM [6]: 65.9% |
| COc1ccc(Nc2nc(N)c(-c3nc4c(C)cccc4[nH]3)s2)cc1 [Molecule S4-M15, N^2-(4-methoxyphenyl)-5-(4-methyl-1H-benzo[d]imidazol-2-yl)thiazole-2,4-diamine] | 89.1% | 82.9% | 71.7% | 59.7% | 48.3% | 93.1% | 79.7% | 68.3% | 59.3% | 49.3% | 104% | 98.7% | 92.7% | 81.7% | 77.3% | 96.1% | 94.9% | 90.7% | 81.7% | 71.3% | viability at 0.01 µM [6]: 92.1%; viability at 0.1 µM [6]: 89.9%; viability at 2.5 µM [6]: 75.7%; viability at 5 µM [6]: 70.7%; viability at 10 µM [6]: 61.3% |
